System: plasma SPM concentrations in mice
Experiment: MTX given intravenously to mice, plasma SPM by LC-MS/MS lipid mediator profiling
Format: in vivo
Settings: blood after 1 hour; for plasma 4S,14S-diHDHA concentration in mice, Mean ± SEM / plasma 5S,15S-diHETE concentration in mice, Mean ± SEM / plasma 7S,14S-diHDHA concentration in mice, Mean ± SEM / plasma 7S,14S-diHDPA concentration in mice, Mean ± SEM / plasma 10S,17S-diHDPA concentration in mice, Mean ± SEM / plasma 13,14-dehydro-15-oxo-LXA4 concentration in mice, Mean ± SEM / plasma 14-oxo-MaR1 concentration in mice, Mean ± SEM / plasma 15-oxo-LXA4 concentration in mice, Mean ± SEM / plasma 15R-LXA4 concentration in mice, Mean ± SEM / plasma 15R-LXB4 concentration in mice, Mean ± SEM / plasma 17R-PD1 concentration in mice, Mean ± SEM / plasma 17R-RvD1 concentration in mice, Mean ± SEM / plasma 17R-RvD3 concentration in mice, Mean ± SEM / plasma 22-OH-MaR1 concentration in mice, Mean ± SEM / plasma 22-OH-PD1 concentration in mice, Mean ± SEM / plasma LXA4 concentration in mice, Mean ± SEM / plasma LXB4 concentration in mice, Mean ± SEM / plasma MaR1 concentration in mice, Mean ± SEM / plasma MaR1n-3 DPA concentration in mice, Mean ± SEM / plasma MaR2 concentration in mice, Mean ± SEM / plasma PD1 concentration in mice, Mean ± SEM / plasma PD1n-3 DPA concentration in mice, Mean ± SEM / plasma PDx concentration in mice, Mean ± SEM / plasma RvD1 concentration in mice, Mean ± SEM / plasma RvD1n-3 DPA concentration in mice, Mean ± SEM / plasma RvD2 concentration in mice, Mean ± SEM / plasma RvD2n-3 DPA concentration in mice, Mean ± SEM / plasma RvD3 concentration in mice, Mean ± SEM / plasma RvD4 concentration in mice, Mean ± SEM / plasma RvD5 concentration in mice, Mean ± SEM / plasma RvD5n-3 DPA concentration in mice, Mean ± SEM / plasma RvD6 concentration in mice, Mean ± SEM / plasma RvE1 concentration in mice, Mean ± SEM / plasma RvE2 concentration in mice, Mean ± SEM / plasma RvE3 concentration in mice, Mean ± SEM / plasma RvT1 concentration in mice, Mean ± SEM / plasma RvT2 concentration in mice, Mean ± SEM / plasma RvT3 concentration in mice, Mean ± SEM / plasma RvT4 concentration in mice, Mean ± SEM: intravenous injection
Experimental: Plasma was obtained by centrifugation and peripheral blood SPM concentrations were determined using LC-MS/MS based lipid mediator profiling. (A) OPLS-DA analysis of plasma SPM concentrations. Colored spherical areas display 95% confidence region of respective incubations. […] Results for A, B are representative of n=6 donors from three distinct experiments. […] Blood was then collected after 1 hour and SPM concentrations were determined using LC-MS/MS based lipid mediator profiling (D) oPLS-DA analysis of plasma SPM concentrations. Colored areas display 95% confidence region of respective incubations. […] Results are representative of n=4 mice per group and experiments were conducted on two distinct occasions.
Plasma was obtained from peripheral blood of healthy volunteers, patients and mouse following centrifugation at 1500×g for 10 min at room temperature. Paws were collected and immediately transferred to liquid nitrogen prior to homogenization in 1 ml ice cold MeOH and homogenized using a glass dounce. All samples for LC-MS/MS-based profiling were extracted using solid-phase extraction columns as in Walker, M. E., Souza, P. R., Colas, R. A. & Dalli, J. “13-Series resolvins mediate the leukocyte-platelet actions of atorvastatin and pravastatin in inflammatory arthritis.” FASEB J 31, 3636-3648 (2017), the contents of which are incorporated herein by reference. Prior to sample extraction, deuterated internal standards, representing each region in the chromatographic analysis (500 pg each) were added to facilitate quantification. Samples were kept at −20° C. for a minimum of 45 min to allow protein precipitation. Supernatants were subjected to solid phase extraction, methyl formate fraction collected, brought to dryness and suspended in phase (methanol/water, 1:1, vol/vol) for injection on a Shimadzu LC-20AD HPLC and a Shimadzu SIL-20AC autoinjector, paired with a QTrap 5500 or QTrap 6500 plus (Sciex). An Agilent Poroshell 120 EC-C18 column (100 mm×4.6 mm×2.7 μm) was kept at 50° C. and mediators eluted using a mobile phase consisting of methanol/water/acetic acid of 20:80:0.01 (vol/vol/vol) that was ramped to 50:50:0.01 (vol/vol/vol) over 0.5 min and then to 80:20:0.01 (vol/vol/vol) from 2 min to 11 min, maintained till 14.5 min and then rapidly ramped to 98:2:0.01 (vol/vol/vol) for the next 0.1 min. This was subsequently maintained at 98:2:0.01 (vol/vol/vol) for 5.4 min, and the flow rate was maintained at 0.5 ml/min. QTrap 5500 or QTrap 6500 plus were operated using a multiple reaction monitoring method as in Walker, M. E., Souza, P. R., Colas, R. A. & Dalli, J. “13-Series resolvins mediate the leukocyte-platelet actions of atorvastatin and pravastatin in inflammatory arthritis.” FASEB J 31, 3636-3648 (2017), the contents of which are incorporated herein by reference. Each lipid mediator was identified using established criteria including matching retention time to synthetic or authentic standards and at least 6 diagnostic ions (Walker, M. E., Souza, P. R., Colas, R. A. & Dalli, J. “13-Series resolvins mediate the leukocyte-platelet actions of atorvastatin and pravastatin in inflammatory arthritis.” FASEB J 31, 3636-3648 (2017), the contents of which are incorporated herein by reference).

[1] = mice, MTX 1 μg/mouse or 22 μg/mouse intravenous

## CN(Cc1cnc2nc(N)nc(N)c2n1)c1ccc(C(=O)N[C@@H](CCC(=O)O)C(=O)O)cc1 [MTX, Methotrexate]
1 μg/mouse
  plasma 4S,14S-diHDHA concentration in mice, Mean ± SEM: 18.38 ± 6.59
  plasma 5S,15S-diHETE concentration in mice, Mean ± SEM: 14.61 ± 6.53
  plasma 7S,14S-diHDHA concentration in mice, Mean ± SEM: 0.00 ± 0.00
  plasma 7S,14S-diHDPA concentration in mice, Mean ± SEM: 0.00 ± 0.00
  plasma 10S,17S-diHDPA concentration in mice, Mean ± SEM: 2.41 ± 0.97
  plasma 13,14-dehydro-15-oxo-LXA4 concentration in mice, Mean ± SEM: 0.65 ± 0.21
  plasma 14-oxo-MaR1 concentration in mice, Mean ± SEM: 3.44 ± 0.37
  plasma 15-oxo-LXA4 concentration in mice, Mean ± SEM: 3.53 ± 1.62
  plasma 15R-LXA4 concentration in mice, Mean ± SEM: 6.41 ± 0.78
  plasma 15R-LXB4 concentration in mice, Mean ± SEM: 3.90 ± 1.80
  plasma 17R-PD1 concentration in mice, Mean ± SEM: 10.50 ± 4.91
  plasma 17R-RvD1 concentration in mice, Mean ± SEM: 0.00 ± 0.00
  plasma 17R-RvD3 concentration in mice, Mean ± SEM: 4.26 ± 0.87
  plasma 22-OH-MaR1 concentration in mice, Mean ± SEM: 0.00 ± 0.00
  plasma 22-OH-PD1 concentration in mice, Mean ± SEM: 0.00 ± 0.00
  plasma LXA4 concentration in mice, Mean ± SEM: 1.06 ± 0.20
  plasma LXB4 concentration in mice, Mean ± SEM: 16.93 ± 1.92
  plasma MaR1 concentration in mice, Mean ± SEM: 71.74 ± 20.71
  plasma MaR1n-3 DPA concentration in mice, Mean ± SEM: 0.83 ± 0.34
  plasma MaR2 concentration in mice, Mean ± SEM: 2.05 ± 0.39
  plasma PD1 concentration in mice, Mean ± SEM: 10.13 ± 4.31
  plasma PD1n-3 DPA concentration in mice, Mean ± SEM: 0.00 ± 0.00
  plasma PDx concentration in mice, Mean ± SEM: 17.23 ± 1.32
  plasma RvD1 concentration in mice, Mean ± SEM: 1.39 ± 0.59
  plasma RvD1n-3 DPA concentration in mice, Mean ± SEM: 0.67 ± 0.35
  plasma RvD2 concentration in mice, Mean ± SEM: 2.60 ± 1.05
  plasma RvD2n-3 DPA concentration in mice, Mean ± SEM: 4.54 ± 1.98
  plasma RvD3 concentration in mice, Mean ± SEM: 1.30 ± 0.56
  plasma RvD4 concentration in mice, Mean ± SEM: 3.70 ± 0.70
  plasma RvD5 concentration in mice, Mean ± SEM: 1.64 ± 0.67
  plasma RvD5n-3 DPA concentration in mice, Mean ± SEM: 4.02 ± 0.79
  plasma RvD6 concentration in mice, Mean ± SEM: 1.72 ± 0.72
  plasma RvE1 concentration in mice, Mean ± SEM: 0.54 ± 0.25
  plasma RvE2 concentration in mice, Mean ± SEM: 1.70 ± 0.52
  plasma RvE3 concentration in mice, Mean ± SEM: 6.22 ± 1.39
  plasma RvT1 concentration in mice, Mean ± SEM: 10.18 ± 2.01
  plasma RvT2 concentration in mice, Mean ± SEM: 0.00 ± 0.00
  plasma RvT3 concentration in mice, Mean ± SEM: 0.63 ± 0.28
  plasma RvT4 concentration in mice, Mean ± SEM: 1.40 ± 0.64
22 μg/mouse
  plasma 4S,14S-diHDHA concentration in mice, Mean ± SEM: 1.43 ± 0.64
  plasma 5S,15S-diHETE concentration in mice, Mean ± SEM: 12.65 ± 5.37
  plasma 7S,14S-diHDHA concentration in mice, Mean ± SEM: 22.10 ± 8.55
  plasma 7S,14S-diHDPA concentration in mice, Mean ± SEM: 0.64 ± 0.55
  plasma 10S,17S-diHDPA concentration in mice, Mean ± SEM: 0.52 ± 0.45
  plasma 13,14-dehydro-15-oxo-LXA4 concentration in mice, Mean ± SEM: 0.20 ± 0.15
  plasma 14-oxo-MaR1 concentration in mice, Mean ± SEM: 0.81 ± 0.41
  plasma 15-oxo-LXA4 concentration in mice, Mean ± SEM: 3.93 ± 1.01
  plasma 15R-LXA4 concentration in mice, Mean ± SEM: 6.20 ± 1.44
  plasma 15R-LXB4 concentration in mice, Mean ± SEM: 2.17 ± 0.89
  plasma 17R-PD1 concentration in mice, Mean ± SEM: 1.41 ± 0.61
  plasma 17R-RvD1 concentration in mice, Mean ± SEM: 0.26 ± 0.30
  plasma 17R-RvD3 concentration in mice, Mean ± SEM: 0.67 ± 0.65
  plasma 22-OH-MaR1 concentration in mice, Mean ± SEM: 0.00 ± 0.00
  plasma 22-OH-PD1 concentration in mice, Mean ± SEM: 0.00 ± 0.00
  plasma LXA4 concentration in mice, Mean ± SEM: 0.56 ± 0.15
  plasma LXB4 concentration in mice, Mean ± SEM: 12.72 ± 1.68
  plasma MaR1 concentration in mice, Mean ± SEM: 37.97 ± 11.63
  plasma MaR1n-3 DPA concentration in mice, Mean ± SEM: 0.00 ± 0.00
  plasma MaR2 concentration in mice, Mean ± SEM: 1.28 ± 0.72
  plasma PD1 concentration in mice, Mean ± SEM: 9.99 ± 2.47
  plasma PD1n-3 DPA concentration in mice, Mean ± SEM: 0.28 ± 0.24
  plasma PDx concentration in mice, Mean ± SEM: 10.36 ± 2.79
  plasma RvD1 concentration in mice, Mean ± SEM: 0.14 ± 0.12
  plasma RvD1n-3 DPA concentration in mice, Mean ± SEM: 0.33 ± 0.48
  plasma RvD2 concentration in mice, Mean ± SEM: 2.99 ± 0.66
  plasma RvD2n-3 DPA concentration in mice, Mean ± SEM: 3.72 ± 3.41
  plasma RvD3 concentration in mice, Mean ± SEM: 0.18 ± 0.66
  plasma RvD4 concentration in mice, Mean ± SEM: 3.88 ± 0.55
  plasma RvD5 concentration in mice, Mean ± SEM: 0.00 ± 0.00
  plasma RvD5n-3 DPA concentration in mice, Mean ± SEM: 0.00 ± 0.00
  plasma RvD6 concentration in mice, Mean ± SEM: 0.00 ± 0.00
  plasma RvE1 concentration in mice, Mean ± SEM: 0.00 ± 0.00
  plasma RvE2 concentration in mice, Mean ± SEM: 0.96 ± 0.22
  plasma RvE3 concentration in mice, Mean ± SEM: 0.77 ± 0.64
  plasma RvT1 concentration in mice, Mean ± SEM: 9.49 ± 5.15
  plasma RvT2 concentration in mice, Mean ± SEM: 0.00 ± 0.00
  plasma RvT3 concentration in mice, Mean ± SEM: 0.87 ± 0.48
  plasma RvT4 concentration in mice, Mean ± SEM: 2.07 ± 1.16
[1]
  ALOX15-derived SPM including RvT1, RvT4 and RvD5n-3 DPA: upregulation
  peripheral blood SPM profile: dose-dependent shift

Reference: US12681015B2, “Methods for predicting patient response to DMARDs” (Queen Mary University of London, priority 2019, dated 2026)
